Test results published in patent US20140314757A1, “PHYTOCANNABINOIDS FOR USE IN THE TREATMENT OF BREAST CANCER” (priority 2011, published 2014).

Key:
BT474 cells = assay: MTT cell viability, BT474 cells; format: cell-based, human; conditions: for cell viability, increasing concentrations: 72 h, concentration-related (FIG. 2); for cell viability at low concentrations: <1 μM, alone or 1:1 combination, 72 h (FIG. 3)
Procedure: (§1) The effect of THC and CBD, alone and in combination, on the viability of two different Her2-positive human breast cancer cell lines: SkBr3 and BT474 were tested.
(§2) Briefly, cells were incubated in RPMI (SkBr3) or DMEM (BT474) supplemented with 10% foetal bovine serum. After 12 hours of serum starvation, the cells were challenged with different concentrations of THC or CBD (or the corresponding vehicle, DMSO) for 72 h. Cell viability was then determined by the colorimetric MTT test.
The analysis of the combined drug effect was performed with the CalcuSyn v2.0 software. To determine whether the combination of THC and CBD was additive or synergistic, we calculated different combination indexes (Cis) using the algorithm by Chou and Talalay with the CalcuSyn v2.0 software.
For each ED, the software (i) plots a line connecting the concentrations of THC and CBD that produce that particular effect when administered as single agents, and (ii) generates a point that indicates the concentration of THC and CBD, applied as a combination, required to produce such effect. If the line is straight, this means that the two compounds are producing a simple additive effect and the point should appear within it.
The effect of THC and CBD, alone and in combination at different ratios, on the viability of BT474 cells was examined.
Cells were incubated in DMEM supplemented with 10% foetal bovine serum. After 12 hours of serum starvation, cells were challenged for 72 h as described in Table 3.1. Cell viability was then determined by the colorimetric MTT test.

SkBr3 cells = assay: MTT cell viability, SkBr3 cells; format: cell-based, human; conditions: for cell viability, increasing concentrations: 72 h, concentration-related (FIG. 2)
Procedure: as §1, §2

[1] = system: 231-Met (highly metastatic 231-Her2-derived cell line); assay: MTT cell viability, highly metastatic 231-Her2 cells; format: cell-based, human; conditions: for cell viability, increasing concentrations: 72 h (FIG. 9); for IC50 values, cell viability: 72 h, THC compared with CBD (FIG. 9)
Procedure: The effect of THC and CBD on the viability of a series of Her2-positive human breast cancer cell lines: MDA-MB-231 cells that ectopically overexpress Her2 (231-Her2), a highly metastatic version of 231-Her2 (231-Met), and three different trastuzumab-resistant 231-Her2-derived cell lines (TrR1, TrR2 and TrR3).
Cells were incubated in DMEM supplemented with 10% foetal bovine serum. After 12 hours of serum starvation, cells were challenged with different concentrations of THC or CBD (or the corresponding vehicle, DMSO) for 72 h. Cell viability was then determined by the colorimetric MTT test.
(§3) Cells were incubated in the presence of cannabinoids for 48 h and cell viability was assessed by the MTT colorimetric test.

MDA-MB-231 cells = assay: MTT cell viability, MDA-MB-231 cells; format: cell-based, human; conditions: 48 h (FIG. 11)
Procedure: as §3

[2] = system: MDA-MB-231 cells stably overexpressing Her2 (231-Her2); assay: MTT cell viability, 231-Her2 cells; format: cell-based, human; conditions: 48 h (FIGS. 13 and 14)
Procedure: as §3

id-1 gene expression = conditions: MDA-MB231 and MDA-MB436 cell lines; cited from earlier work

| Compound | cell viability, increasing concentrations (BT474 cells) | cell viability at low concentrations (BT474 cells) | cell viability, increasing concentrations (SkBr3 cells) | cell viability, increasing concentrations [1] | IC50 values, cell viability [1] | cell viability, single agents (MDA-MB-231 cells) | cell viability, single agents, increasing concentrations [2] | id-1 gene expression (id-1 gene expression) | cell viability upon exposure to THC (BT474 cells; 6 μM THC, 72 h (FIG. 1C)) | cell viability upon exposure to THC (SkBr3 cells; 3 μM THC, 72 h (FIG. 1C)) | effect of CB2 antagonist on THC-induced decrease of viability (BT474 cells; 6 μM THC with 2 μM SR144528, 72 h (FIG. 1C)) | effect of CB2 antagonist on THC-induced decrease of viability (SkBr3 cells; 3 μM THC with 2 μM SR144528, 72 h (FIG. 1C)) |
| --- | --- | --- | --- | --- | --- | --- | --- | --- | --- | --- | --- | --- |
| C=C(C)[C@@H]1CCC(C)=C[C@H]1c1c(O)cc(CCCCC)cc1O [CBD, cannabidiol] | reduced their viability | no effect on cell viability | reduced their viability | decreased its viability | virtually identical | sensitive | decreases | inhibit | – | – | – | – |
| CCCCCc1cc(O)c2c(c1)OC(C)(C)[C@@H]1CCC(C)=C[C@@H]21 [THC, tetrahydrocannabinol] | reduced their viability | no effect on cell viability | reduced their viability | decreased its viability | virtually identical | sensitive | decreases | – | decreases | decreases | – | – |
| SR144528 | – | – | – | – | – | – | – | – | – | – | prevented | prevented |
